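Test compounds were applied to cells in 96-well plates for 48 hours at 5 doses. Here, GI50 denotes the concentration required for 50% inhibition of growth. TGI denotes the concentration required for complete inhibition of growth.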
Assays:
Assay in all cases: NCI-60 cell line screen, 48 h
MOLT-4 leukemia = tested on: MOLT-4 leukemia
ACHN renal = tested on: ACHN renal
RPMI-8226 leukemia = tested on: RPMI-8226 leukemia
A549 NSCLC = tested on: A549 NSCLC
NCI/ADR-RES ovarian = tested on: NCI/ADR-RES ovarian
OVCAR-8 ovarian = tested on: OVCAR-8 ovarian
UACC-62 melanoma = tested on: UACC-62 melanoma
NCI-H226 lung = tested on: NCI-H226 lung
UACC-257 melanoma = tested on: UACC-257 melanoma
NCI-H460 lung = tested on: NCI-H460 lung

| Structure (SMILES) | GI50 (MOLT-4 leukemia) [µM] | TGI (MOLT-4 leukemia) [µM] | GI50 (ACHN renal) [µM] | TGI (ACHN renal) [µM] | GI50 (RPMI-8226 leukemia) [µM] | TGI (RPMI-8226 leukemia) [µM] | GI50 (A549 NSCLC) [µM] | TGI (A549 NSCLC) [µM] | GI50 (NCI/ADR-RES ovarian) [µM] | TGI (NCI/ADR-RES ovarian) [µM] | GI50 (OVCAR-8 ovarian) [µM] | TGI (OVCAR-8 ovarian) [µM] | GI50 (UACC-62 melanoma) [µM] | TGI (UACC-62 melanoma) [µM] | GI50 (NCI-H226 lung) [µM] | TGI (NCI-H226 lung) [µM] | GI50 (UACC-257 melanoma) [µM] | TGI (UACC-257 melanoma) [µM] | GI50 (NCI-H460 lung) [µM] | TGI (NCI-H460 lung) [µM] |
| --- | --- | --- | --- | --- | --- | --- | --- | --- | --- | --- | --- | --- | --- | --- | --- | --- | --- | --- | --- | --- |
| O=C1C=CC(=Nc2cc(Br)c(O)c(Br)c2)C=C1 | 8.71 | > 100 | 18.9 | 46.3 | 11.9 | > 100 | 42.6 | > 100 | 47.2 | > 100 | 14.9 | > 100 | 25.6 | 93.2 | 22.2 | 59.6 | 32.5 | > 100 | 27.2 | 84.9 |
| O=C(Cc1ccc(F)c(F)c1)Nc1cc(C2(C(F)(F)F)CC2)nn1Cc1ccccc1 | 3.96 | 13.8 | 3.85 | 14.2 | 2.82 | 8.67 | 4.6 | > 15 | 3.98 | > 15 | 5.06 | > 15 | 4.33 | > 15 | 4.85 | > 15 | 3.61 | 12.4 | 3.16 | 7.58 |
| COc1c2ccoc2c(OC)c2oc(=O)ccc12 |  | > 100 |  | > 100 |  | > 100 |  | > 100 |  | > 100 |  | > 100 |  | > 100 |  | > 100 |  | > 100 |  | > 100 |
| COCc1cc(C(=O)Nc2cc([C@H]3CC[C@@H](OC(=O)NC(C)C)C3)[nH]n2)n(C)n1 | 5.34 | 68.1 | 11.1 | > 100 | 14.2 | 47 | 13 | > 100 | > 100 | > 100 | 10.9 | > 100 | 11.5 | 36.4 | 5.63 | 76.5 | 25.9 | > 100 | 5.64 | > 100 |
| Cc1nc2ccccc2c(/C=C/c2ccc(Cl)cc2)c1C(=O)/C=C/c1ccc(C(F)(F)F)cc1 | 0.332 | > 100 | 0.241 | 0.594 | 0.269 | 0.681 | 1.41 | 3.48 | 0.619 | 3.63 | 0.433 | 2.2 | 0.939 | 2.29 | 0.306 | 0.911 | 1.06 | 2.93 | 0.642 | 1.89 |
| CC(C)O/N=C/c1cc(NC(=S)OC(C)C)ccc1Cl |  | 48.8 |  | 97.6 |  | 54.2 |  | > 90.6 |  | > 84.9 |  | > 90.3 |  | > 69.3 |  | > 51.2 |  | > 100 |  | > 100 |
| COc1cccc(NC(=O)c2sc3nc(C)c(C(O)c4ccccc4)cc3c2N)c1 (stereo not given) | 0.378 | 19.5 | 0.601 | 18.2 | 0.357 | 12.3 | 0.402 | 21 | 0.245 | 0.941 | 0.469 | > 66.7 | 0.503 | 17.3 | 2.03 | 23.7 | 2.72 | 35.1 | 0.324 | 3.21 |
| NCC1OC(n2cnc3c(N)ncnc32)CC1O (stereo not given) |  | > 100 |  | > 100 |  | > 100 |  | > 100 |  | > 100 |  | > 100 |  | > 100 |  | > 100 |  | > 100 |  | > 100 |
| C#CCSc1cc(Cl)c(C)cc1S(=O)(=O)Nc1nc2ccccc2o1 | 41.8 | > 100 | 35.2 | > 100 | 38.1 | > 100 | 31.8 | > 100 | 42.9 | > 100 | 40.4 | > 100 | 25.5 | 61.9 | 57 | > 100 | 29.4 | 81.6 | 37.5 | > 100 |
| CNC(=O)c1ccccc1Nc1nc(Nc2cc(OC)c(OC)c(OC)c2)ncc1Br | 0.0501 | 5.75 | 0.0209 | 15.6 | 0.0701 | 2.84 | 0.0354 | 17.5 | 0.0496 | 1.81 | 0.0483 | 12.2 | 0.0255 | 1.64 | 0.0265 | 0.214 | 0.0328 | 3.47 | 0.0291 | 1.37 |
| C=C1CCC2C3(C)COC(c4ccccc4)OC3CCC2(C)C1/C=C/C1=CCOC1=O (stereo not given) | 2.55 | 15.1 | 8.74 | 22 | 1.69 | 5.69 | 6.87 | 48.1 | 3.17 | > 100 | 4.11 | > 100 | 6.82 | 22.9 | 3.81 | 13.5 | 63.4 | > 100 | 9.29 | 35.9 |
| C=CC(=O)Nc1cc(C)ccc1Nc1nc(Nc2cc(OC)ncc2C)ncc1C(F)(F)F | 3.55 | > 100 | 0.397 | 2.07 | 0.634 | > 25.3 | 1.02 | 4.59 | 1.69 | > 26.5 | 2.83 | > 100 | 0.0725 | 0.71 | 0.901 | 4.39 | 0.152 | 1.08 | 2.13 | 11.4 |
| Cn1cnc([N+](=O)[O-])c1Sc1nc(N)nc2c1ncn2C1CC(O)C(CO)O1 (stereo not given) |  | 16.4 |  | > 92.8 |  | 36.2 |  | > 100 |  | > 100 |  | > 100 |  | > 20.8 |  | 98.2 |  | > 100 |  | > 40 |
| c1ccc(CN2COc3c(ccc4c3OCN(Cc3ccccc3)C4)C2)cc1 | 0.409 | > 100 | 0.316 | > 100 | 1.41 | > 100 | 0.477 | > 100 | 0.256 | > 100 | 0.391 | > 100 | 0.937 | 4.24 | 0.479 | 5.65 | 0.763 | 6.53 | 0.399 | > 100 |
| Cc1csc(/C=C/C(=O)c2nnn(-c3ccnc4c(C(F)(F)F)cccc34)c2C)c1 | 22.2 | 66.9 | > 100 | > 100 | 23.6 | > 100 | 39.7 | > 100 | 47.7 | > 100 | > 100 | > 100 | 62.2 | > 100 | 53.8 | > 100 | 13.7 | 60.9 | 43.5 | > 100 |
| CC1CCCC(C(O)CC2CC(=O)NC(=O)C2)C1O (stereo not given) |  | > 100 |  | > 100 |  | > 100 |  | > 100 |  | > 100 |  | > 100 |  | > 100 |  | > 100 |  | > 100 |  | > 100 |
| O=C(COc1cc(O)c2c(=O)cc(-c3ccccc3)oc2c1)Nc1ccccc1C(F)(F)F | 5.46 | > 100 | 2.91 | 9.63 | 7.03 | > 100 | 1.71 | 3.75 | 3.45 | 22.5 | 3.67 | 32.1 | 6.58 | > 100 | 2.28 | 6.48 | > 100 | > 100 | 2.59 | 6.68 |

— PubChem BioAssay (NCI)
